Experimental data as given in publication PMC12272882, “Ancestral evolution of oxidase activity in a class of (S)-nicotine and (S)-6-hydroxynicotine-degrading flavoenzymes” (The Journal of Biological Chemistry, 2025).
Where two headings read alike, the source gives them in different places.

What was measured:
Node D [1] = details: pH 7.5, 4 °C, no O2; binding to oxidized enzyme; biphasic
Target sequence in this assay (DOC12272882_5 1-447 A90V): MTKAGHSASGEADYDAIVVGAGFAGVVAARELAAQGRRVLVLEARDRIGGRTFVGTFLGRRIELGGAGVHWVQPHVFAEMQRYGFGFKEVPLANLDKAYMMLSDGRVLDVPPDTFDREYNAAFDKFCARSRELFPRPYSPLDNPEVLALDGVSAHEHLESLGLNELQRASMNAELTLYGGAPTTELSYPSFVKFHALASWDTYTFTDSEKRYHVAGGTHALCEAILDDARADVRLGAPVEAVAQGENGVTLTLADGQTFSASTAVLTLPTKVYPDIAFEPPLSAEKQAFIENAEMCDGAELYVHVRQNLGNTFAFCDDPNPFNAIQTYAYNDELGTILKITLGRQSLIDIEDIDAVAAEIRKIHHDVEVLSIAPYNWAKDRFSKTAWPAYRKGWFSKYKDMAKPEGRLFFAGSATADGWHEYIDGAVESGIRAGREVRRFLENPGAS

Node A [2] = target: T1, Node A (synthetic construct, UniProt Z9LAG0LSP2); assay: anaerobic stopped-flow flavin reduction at […] nm; assay type: biochemical; details: pH 7.5, 4 °C, no O2
T1 construct: ancestral reconstruction
T1 sequence (Z9LAG0LSP2 1-442): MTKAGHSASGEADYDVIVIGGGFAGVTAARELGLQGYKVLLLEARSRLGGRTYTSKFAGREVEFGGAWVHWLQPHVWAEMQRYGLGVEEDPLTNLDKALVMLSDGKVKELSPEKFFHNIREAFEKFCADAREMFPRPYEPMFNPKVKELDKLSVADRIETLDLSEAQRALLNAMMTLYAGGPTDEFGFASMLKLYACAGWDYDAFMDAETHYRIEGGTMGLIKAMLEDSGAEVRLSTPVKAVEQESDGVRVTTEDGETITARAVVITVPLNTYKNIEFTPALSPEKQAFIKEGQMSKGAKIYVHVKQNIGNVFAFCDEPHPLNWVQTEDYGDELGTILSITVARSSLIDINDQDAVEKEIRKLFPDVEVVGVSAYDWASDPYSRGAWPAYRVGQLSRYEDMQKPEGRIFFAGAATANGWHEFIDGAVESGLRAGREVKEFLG

Node D [3] = details: pH 7.5, 4 °C, no O2; binding to oxidized enzyme; biphasic; remark: listed apart in the source
Target sequence in this assay (DOC12272882_5 1-447 M100V): as the sequence (DOC12272882_5 1-447 A90V) above, with V90A, M100V counted along it

Node D [4] = details: pH 7.5, 4 °C, no O2; binding to oxidized enzyme; biphasic; remark: listed apart in the source
Target sequence in this assay (DOC12272882_5 1-447 E300T): as the sequence (DOC12272882_5 1-447 A90V) above, with V90A, E300T counted along it

Node B = target: T2, Node B (synthetic construct, UniProt Z9QPI4SOH8); assay: absorbance spectrum of purified enzyme; assay type: binding; details: as purified
T2 construct: ancestral reconstruction

Node A [5] = target: T1, Node A; assay: absorbance spectrum of purified enzyme; assay type: binding; details: as purified
NctB = target: T3, NctB (Shinella sp. HZN7, UniProt A0A075BSX9); assay: absorbance spectrum of purified enzyme; assay type: binding; details: as purified
T3 construct: synthetic gene in pET29b, C-terminal His tag, E. coli BL21(DE3); FAD holoenzyme

Node D [6] = target: T4, Node D (synthetic construct, UniProt Z9ZYW4GBP2); assay: absorbance spectrum of purified enzyme; assay type: binding; details: as purified
T4 construct: ancestral reconstruction; N-terminal MTKAGHSASGEA peptide (from Node D's own predicted N-terminal region), C-terminal His tag, pET29b, E. coli BL21(DE3); 431 positions

Node C = target: T5, Node C (synthetic construct, UniProt Z9TTH1JYZ3); assay: absorbance spectrum of purified enzyme; assay type: binding; details: as purified
T5 construct: ancestral reconstruction; N-terminal MTKAGHSASGEA peptide added, C-terminal His tag, pET29b, E. coli BL21(DE3); 431 positions

T3 sequence (A0A075BSX9 whole entry): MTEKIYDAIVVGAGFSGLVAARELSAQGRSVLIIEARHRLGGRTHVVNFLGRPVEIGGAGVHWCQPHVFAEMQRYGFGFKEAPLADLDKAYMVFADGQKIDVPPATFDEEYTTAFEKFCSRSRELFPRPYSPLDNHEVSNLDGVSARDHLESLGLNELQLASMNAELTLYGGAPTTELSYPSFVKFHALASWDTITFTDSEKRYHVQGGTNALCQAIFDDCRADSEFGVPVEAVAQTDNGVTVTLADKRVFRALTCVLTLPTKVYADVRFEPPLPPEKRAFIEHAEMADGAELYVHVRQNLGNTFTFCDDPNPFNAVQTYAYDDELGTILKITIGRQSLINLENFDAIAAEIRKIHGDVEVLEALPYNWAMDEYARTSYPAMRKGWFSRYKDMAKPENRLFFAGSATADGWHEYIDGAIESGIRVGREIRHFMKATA

CN1CCC[C@H]1c1ccc(O)nc1 [6OHN, (S)-6-hydroxynicotine] was tested, and the Kd (Node D [1]) was “All three mutants were capable of reacting with 6OHN”, the “anaerobic stopped-flow flavin reduction at 450 nm” value (Node A [2]) was “Node A reacted poorly with both nicotine and 6OHN” and the Kd (Node D [3]) was “All three mutants were capable of reacting with 6OHN”. The Kd (Node D [4]) was “All three mutants were capable of reacting with 6OHN”.

For CN1CCC[C@H]1c1cccnc1 [(S)-nicotine], the “anaerobic stopped-flow flavin reduction at 450 nm” value (Node A [2]) was “Node A reacted poorly with both nicotine and 6OHN”.

In the case of Cc1cc2nc3c(=O)[nH]c(=O)nc-3n(C[C@H](O)[C@H](O)[C@H](O)COP(=O)(O)OP(=O)(O)OC[C@H]3O[C@@H](n4cnc5c(N)ncnc54)[C@H](O)[C@@H]3O)c2cc1C [FAD, flavin adenine dinucleotide], the “absorbance spectrum of purified enzyme” value (Node B) is reported as “All ASR constructs purified with FAD bound”, the “absorbance spectrum of purified enzyme” value (Node A [5]) is reported as “All ASR constructs purified with FAD bound” and the “absorbance spectrum of purified enzyme” value (NctB) is reported as “all of the ASR enzymes and NctB have typical spectra of oxidized FAD”. The “absorbance spectrum of purified enzyme” value (Node D [6]) was “All ASR constructs purified with FAD bound” and the “absorbance spectrum of purified enzyme” value (Node C) was “All ASR constructs purified with FAD bound”.
